Measurements: patent publication US10414756B2, “2-(2,4,5-substituted aniline) pyrimidine derivative, pharmaceutical composition and use thereof” (Nanjing Diansu Biological Technology Co., Ltd., priority 2014, dated 2019)
Where a name gives a salt, the structure may show the parent alone.

Assays:
NCI-H1975 = experiment: Test 5: effect in nude mice implanted with NCI-H1975; type: in vivo
Description: Test 5: Effect Assess in Nude Mice Implanted with NCI-H1975
To nude mice implanted with NCI-H1975, was administered 3.6 μgig (compound/nude mice weight) once a day in one group, and 7.2 μgig once a day in another group, and the tumor size was observed after continuous administration for 10 days.

[1] = Test 4: stability of compounds in human liver microsomes; type: in vitro ADME; conditions: for Remaining Percentage (%) 0 h / Remaining Percentage (%) 8 h / Remaining Percentage (%) 16 h / Remaining Percentage (%) 24 h / Remaining Percentage (%) 32 h / Remaining Percentage (%) 48 h: 0.5 mg/mL liver microsomal protein, 1 mM NADPH, 37° C., N=1; for Half-time period: human liver microsomes
Description: Test 4: Evaluation of Stability of Compounds in Human Liver Microsomes
Assay system: the metabolic stability of the compounds in the present invention were determined by employing a mixture of male and female liver microsomes (Jiangyin Qi Biotechnology Co., Ltd.) and 1 mM NADPH. Samples were analyzed by a mass spectrometer. HRMS was used to determine the peak area response ratio (corresponding to the peak area of the compound to be tested or control compound being divided by the peak area of the internal standard) without running the standard curve. In order to detect all possible metabolites, HRMS scan were performed within an appropriate m/z range.
Determination condition: the assay was performed with one time incubation (N=1). The compounds to be tested were incubated at 37° C. in a PBS buffer containing 0.5 mg/mL liver microsomal protein.
Determination quality control: compare the testosterone of control compound in parallel to determine the enzyme […] of (liver) microsomes. After the last time point, […]
Aqueous phase (A): 90% water, 10% buffer;
Organic phase (B): 90% acetonitrile, 10% buffer;
Autosampler: injection volume 10 μL

[2] = Effect Embodiment 2: rat pharmacokinetics after intragastric administration; type: in vivo, SD rats; conditions: rats, 25 mg/kg intragastric, n=6, compared with AZD9291
Text: 2.1. Grouping of Experimental Animals:
24 SD rats were half male and half female, randomly divided into 4 groups, 6 rats in each group, half male and half female
1-3 male, NO. […] 7-9 male, NO. 10-12 female
2.2. Experimental Reagents and Administration Modes
Intragastric Administration:
2. grouping and weighing rats;
4. the blood samples were centrifuged, supernatant was extracted, treated, and analyzed.

[3] = Dose 3.6 μg/g once a day for 10 days
[4] = Dose 7.2 μg/g once a day for 10 days

Row | SMILES | Remaining Percentage (%) 0 h [1] [%] | Remaining Percentage (%) 8 h [1] [%] | Remaining Percentage (%) 16 h [1] [%] | Remaining Percentage (%) 24 h [1] [%] | Remaining Percentage (%) 32 h [1] [%] | Remaining Percentage (%) 48 h [1] [%] | Half-time period [1] [h] | tumor size 11th d (NCI-H1975; [3]) [mm] | tumor size 0 d (NCI-H1975; Dose 3.6 μg/g once a day) [mm] | tumor size 11th d (NCI-H1975; [4]) [mm] | tumor size 0 d (NCI-H1975; Dose 7.2 μg/g once a day) [mm] | inhibitory effect on tumor growth (NCI-H1975; low dose (3.6 μg/g)) | pharmacokinetics (mean drug concentration-time curve, FIG. 2) [2]
1 | C=CC(=O)Nc1cc(Nc2nccc(-c3cn(C)c4ccccc34)n2)c(OC)cc1N(C)CCN(C)C.CS(=O)(=O)O [AZD9291, reference compound] | 100 | 82 | 61 | 48 | 34 | 14 | 24 | 13 | 13 | 8 | 12 | very low inhibitory effect on tumor growth | –
2 | [2H]C([2H])([2H])N(CCN(C)c1cc(OC)c(Nc2nccc(-c3cn(C)c4ccccc34)n2)cc1NC(=O)C=C)C([2H])([2H])[2H] [Embodiment 2B, N-(2-{2-di(D3-methyl)aminoethyl-methylamino}-4-methoxy-5-{[4-(1-methylindol-3-yl)pyrimidin-2-yl]amino}phenyl)-2-acrylamide mesylate] | 100 | 97 | 90 | 82 | 75 | 81 | >48 | 5 | 12 | 4 | 12 | – | –
3 | [2H]C([2H])([2H])n1cc(-c2ccnc(Nc3cc(NC(=O)C=C)c(N(C)CCN(C)C)cc3OC)n2)c2ccccc21 [Embodiment 3B, N-(2-{2-dimethylaminoethyl-methylamino}-4-methoxy-5-{[4-(1-D3-methyl)indol-3-yl)pyrimidin-2-yl]amino}phenyl)-2-acrylamide mesylate] | 100 | 90 | 82 | 73 | 64 | 55 | >48 | 9 | 14 | 7 | 13 | – | better pharmacokinetics
4 | [2H]C([2H])([2H])N(CCN(C)c1cc(OC)c(Nc2nccc(-c3cn(C([2H])([2H])[2H])c4ccccc34)n2)cc1NC(=O)C=C)C([2H])([2H])[2H] [Embodiment 6B, N-(2-{2-di(D3-methyl)aminoethyl-methylamino}-4-methoxy-5-{[4-(1-(D3-methyl)indol-3-yl)pyrimidin-2-yl]amino}phenyl)-2-acrylamide mesylate] | 100 | 92 | 80 | 76 | 65 | 58 | >48 | – | – | – | – | – | –

Further lines, with some results ahead:

Row | Remaining Percentage (%) 0 h [1] [%] | Remaining Percentage (%) 8 h [1] [%] | Remaining Percentage (%) 16 h [1] [%] | Remaining Percentage (%) 24 h [1] [%] | Remaining Percentage (%) 32 h [1] [%] | Remaining Percentage (%) 48 h [1] [%] | Half-time period [1] [h] | SMILES | tumor size 11th d (NCI-H1975; [3]) [mm] | tumor size 0 d (NCI-H1975; Dose 3.6 μg/g once a day) [mm] | tumor size 11th d (NCI-H1975; [4]) [mm] | tumor size 0 d (NCI-H1975; Dose 7.2 μg/g once a day) [mm] | inhibitory effect on tumor growth (NCI-H1975; low dose (3.6 μg/g)) | pharmacokinetics (mean drug concentration-time curve, FIG. 2) [2]
5 | 100 | 93 | 86 | 77 | 70 | 67 | >48 | [2H]C([2H])([2H])N(C)CCN(C)c1cc(OC)c(Nc2nccc(-c3cn(C)c4ccccc34)n2)cc1NC(=O)C=C [Embodiment 1B, N-(2-{2-[methyl(D3-methyl)amino]ethyl-methylamino}-4-methoxy-5-{[4-(1-methylindol-3-yl)pyrimidin-2-yl]amino}phenyl)-2-acrylamide mesylate] | 6 | 12 | 5 | 13 | – | –
6 | 100 | 89 | 81 | 72 | 63 | 51 | >48 | [2H]C([2H])([2H])Oc1cc(N(C)CCN(C)C)c(NC(=O)C=C)cc1Nc1nccc(-c2cn(C)c3ccccc23)n1 [Embodiment 4B, N-(2-{2-dimethylaminoethyl-methylamino}-4-(D3-methoxy)-5-{[4-(1-methylindol-3-yl)pyrimidin-2-yl]amino}phenyl)-2-acrylamide mesylate] | 8 | 13 | 6 | 11 | – | –
7 | 100 | 91 | 84 | 75 | 69 | 66 | >48 | [2H]C([2H])([2H])N(CCN(C)C)c1cc(OC)c(Nc2nccc(-c3cn(C)c4ccccc34)n2)cc1NC(=O)C=C [Embodiment 5B, N-(2-{2-dimethylaminoethyl-(D3-methyl)amino}-4-methoxy-5-{[4-(1-methylindol-3-yl)pyrimidin-2-yl]amino}phenyl)-2-acrylamide mesylate] | 10 | 11 | 8 | 14 | – | –
